Laboratory results: article PMC8119466, “A screen of FDA-approved drugs identifies inhibitors of protein tyrosine phosphatase 4A3 (PTP4A3 or PRL-3)” (Scientific Reports, 2021)
Counter-ions that a name gives are not always drawn. Like-named read-outs stand apart in the source and are kept apart here.

What was measured:
Type in all cases: biochemical
recombinant PRL-1 = target: T1, recombinant PRL-1 (Homo sapiens, UniProt Q93096); assay: In vitro phosphatase assay (DiFMUP hydrolysis), PRL-1; also: test concentration or dose not given here
T1 construct: 6xHis (N, cleaved yes); made in house; host or cells: E. coli One Shot BL21 Star
T1 sequence (Q93096 1-173): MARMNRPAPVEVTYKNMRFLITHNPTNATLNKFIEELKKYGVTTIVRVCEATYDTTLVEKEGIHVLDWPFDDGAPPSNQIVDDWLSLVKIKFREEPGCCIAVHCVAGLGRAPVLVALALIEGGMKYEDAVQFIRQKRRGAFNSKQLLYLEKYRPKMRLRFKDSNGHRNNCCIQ

recombinant PRL-2 = target: T2, recombinant PRL-2 (Homo sapiens, UniProt Q12974); assay: In vitro phosphatase assay (DiFMUP hydrolysis), PRL-2;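 also: PRL-2 activity read as DiFMUP hydrolysis after 20 min at room temperature with drug, enzyme first pre-reduced at 4 °C for 20 min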
T2 construct: 6xHis (N, cleaved yes); made in house; host or cells: E. coli One Shot BL21 Star
T2 sequence (Q12974 1-167): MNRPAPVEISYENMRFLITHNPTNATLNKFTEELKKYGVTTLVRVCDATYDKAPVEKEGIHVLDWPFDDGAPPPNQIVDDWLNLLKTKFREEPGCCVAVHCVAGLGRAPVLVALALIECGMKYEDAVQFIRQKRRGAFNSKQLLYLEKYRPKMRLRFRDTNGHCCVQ

recombinant PRL-3 = target: T3, recombinant PRL-3 (Homo sapiens, UniProt O75365); assay: In vitro phosphatase assay (DiFMUP hydrolysis), PRL-3; also: test concentration or dose not given here
T3 construct: 6xHis (N, cleaved yes); made in house; host or cells: E. coli One Shot BL21 Star
T3 sequence (O75365 whole entry): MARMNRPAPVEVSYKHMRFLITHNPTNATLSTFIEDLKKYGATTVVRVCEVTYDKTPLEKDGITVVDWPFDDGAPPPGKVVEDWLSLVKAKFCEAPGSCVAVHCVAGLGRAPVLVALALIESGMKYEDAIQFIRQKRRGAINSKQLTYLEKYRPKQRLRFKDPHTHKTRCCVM

[1] = FDA-approved drug screen, activity compared to DMSO

SMILES	% Phosphatase Activity (compared to DMSO) PRL-1 (recombinant PRL-1) [%]	% Phosphatase Activity (compared to DMSO) PRL-2 (recombinant PRL-2) [%]	% Phosphatase Activity (compared to DMSO) PRL-3 (recombinant PRL-3) [%]	% Phosphatase Activity (compared to DMSO) PRL-1 (recombinant PRL-1; [1]) [%]	% Phosphatase Activity (compared to DMSO) PRL-2 (recombinant PRL-2; [1]) [%]	% Phosphatase Activity (compared to DMSO) PRL-3 (recombinant PRL-3; [1]) [%]
Cc1cc(NS(=O)(=O)c2ccc(N)cc2)no1 [Sulfamethoxazole]	91	96	86	–	–	–
COc1ccc(NS(=O)(=O)c2ccc(N)cc2)nn1 [Sulfamethoxypyridazine]	–	–	–	94	109	77
Nc1ccc(S(=O)(=O)Nc2ccccn2)cc1 [Sulfapyridine]	–	–	–	106	113	84
O=C(O)c1cc(/N=N/c2ccc(S(=O)(=O)Nc3ccccn3)cc2)ccc1O [Sulfasalazine]	–	–	–	67	50	59
Nc1ccc(S(=O)(=O)Nc2nccs2)cc1 [Sulfathiazole]	–	–	–	119	114	87
Cc1noc(NS(=O)(=O)c2ccc(N)cc2)c1C [Sulfisoxazole]	–	–	–	88	95	89
CC1=C(CC(=O)O)c2cc(F)ccc2/C1=C\c1ccc([S+](C)[O-])cc1 (stereo not drawn) [Sulindac]	–	–	–	83	96	85
COc1cc(O)c(C(=O)c2ccccc2)cc1S(=O)(=O)O [Sulisobenzone]	–	–	–	91	95	81
COc1cc(NS(=O)(=O)c2ccc(N)cc2)nc(OC)n1 [Sulphadimethoxine]	–	–	–	92	94	83
CCN1CCCC1CNC(=O)c1cc(S(N)(=O)=O)ccc1OC (stereo not drawn) [Sulpiride]	–	–	–	89	92	70
CNS(=O)(=O)Cc1ccc2[nH]cc(CCN(C)C)c2c1 [Sumatriptan Succinate]	–	–	–	99	84	80
CCN(CC)CCNC(=O)c1c(C)[nH]c(/C=C2\C(=O)Nc3ccc(F)cc32)c1C [Sunitinib Malate]	–	–	–	80	76	65
CCN(CC)CCNC(=O)c1c(C)[nH]c(/C=C2\C(=O)Nc3ccc(F)cc32)c1C [Sunitinib]	–	–	–	67	42	77
CC(C(=O)O)c1ccc(C(=O)c2cccs2)cc1 (stereo not drawn) [Suprofen]	–	–	–	93	95	92
Cc1ccc(-n2nccn2)c(C(=O)N2CCN(c3nc4cc(Cl)ccc4o3)CC[C@H]2C)c1 [Suvorexant (MK-4305)]	–	–	–	86	78	89
CNC(=O)c1ccc2cc([C@@]3(O)CCn4cncc43)ccc2c1 [TAK-700 (Orteronel)]	–	–	–	128	107	87
Cc1cnc(Nc2ccc(OCCN3CCCC3)cc2)nc1Nc1cccc(S(=O)(=O)NC(C)(C)C)c1 [TG101348 (SAR302503)]	–	–	–	97	96	95
Cn1c(COP(=O)(NCCBr)NCCBr)cnc1[N+](=O)[O-] [TH-302]	–	–	–	91	100	95
Cc1[nH]c(/C=C2\C(=O)Nc3ccccc32)c(C)c1CCC(=O)O [TSU-68 (SU6668, Orantinib)]	–	–	–	75	52	52
C=CC[C@@H]1/C=C(\C)C[C@H](C)C[C@H](OC)[C@H]2O[C@@](O)(C(=O)C(=O)N3CCCC[C@H]3C(=O)O[C@H](/C(C)=C/[C@@H]3CC[C@@H](O)[C@H](OC)C3)[C@H](C)[C@@H](O)CC1=O)[C@H](C)C[C@@H]2OC [Tacrolimus (FK506)]	–	–	–	90	78	94
CN1CC(=O)N2[C@H](c3ccc4c(c3)OCO4)c3[nH]c4ccccc4c3C[C@@H]2C1=O [Tadalafil]	–	–	–	109	97	82
CN(C(=O)c1ccc(F)cc1C(F)(F)F)C1CCN(c2nnc(-c3ccnn3C)c3ccccc23)CC1 [Taladegib (LY2940680)]	–	–	–	91	107	86
CC1(C)CCC(C)(C)c2cc(NC(=O)c3ccc(C(=O)O)cc3)ccc21 [Tamibarotene]	–	–	–	93	80	73
CC/C(=C(\c1ccccc1)c1ccc(OCCN(C)C)cc1)c1ccccc1 [Tamoxifen Citrate]	–	–	–	84	91	95
CCOc1ccccc1OCCN[C@H](C)Cc1ccc(OC)c(S(N)(=O)=O)c1 [Tamsulosin]	–	–	–	96	107	83
O=C(NS(=O)(=O)c1ccc(Br)s1)c1ccc(Cl)cc1Cl [Tasisulam]	–	–	–	94	87	99
NCCS(=O)(=O)O [Taurine]	–	–	–	97	77	94
